{
  "source": "patent US8883192B2",
  "about": "“Compositions and methods for reducing or preventing obesity” (Nestec S.A., priority 2004, dated 2014)",
  "key": {"[1]": {"system": "rats after surgically-induced menopause", "conditions": "cited from earlier work"}, "rat adipocytes": {"system": "rat adipocytes", "conditions": "cited from earlier work"}, "[2]": {"test": "Metabolic profile of isoflavones and their metabolites in blood of dogs", "assay_type": "in vivo, dog", "conditions": "blood of dogs tested; FIG. 8B", "description": "The following measurements were made for each animal: • Body weight, body condition score, DEXA. • Plasma concentrations of isoflavones and their metabolites • Blood leptin • Intravenous glucose tolerance test • Oxidative stress measurement (isoprostanes: 8-iso-prostaglandin F2α, formed from arachidonic acid in phospholipids by free radical reaction): 3-month samples\nThe metabolic profiles of isoflavones and their metabolites in the blood of humans (FIG. 8A) and dogs (FIG. 8B) were compared."}, "[3]": {"conditions": "cited from earlier work"}, "estrogen receptor (ER)": {"system": "estrogen receptor (ER)", "conditions": "compared with other isoflavones; cited from earlier work"}, "topoisomerase II": {"system": "topoisomerase II", "conditions": "cited from earlier work"}, "tyrosine protein kinase": {"system": "tyrosine protein kinase", "conditions": "cited from earlier work"}, "angiogenesis": {"system": "angiogenesis", "conditions": "cited from earlier work"}},
  "data": [
    {"smiles": "O=c1c(-c2ccc(O)cc2)coc2cc(O)ccc12", "note": "[Daidzein, daidzein]", "values": [
      {"measurement": "body fat accumulation", "setting": "[1]", "value": "suppressing body fat accumulation"},
      {"measurement": "basal and epinephrine-stimulated lipolysis", "setting": "rat adipocytes", "value": "enhanced"},
      {"measurement": "basal and insulin-stimulated lipogenesis", "setting": "rat adipocytes", "value": "inhibited"}
    ]},
    {"smiles": "Oc1ccc([C@H]2COc3cc(O)ccc3C2)cc1", "note": "[Equol]", "values": [
      {"measurement": "form of isoflavone metabolite in the blood", "setting": "[2]", "value": "predominant form of isoflavone metabolite"},
      {"measurement": "antioxidant activity", "setting": "[3]; compared with all the isoflavones tested, Setchell 2002", "value": "greatest antioxidant activity of all the isoflavones tested"},
      {"measurement": "induction of estrogen receptor (ER)-responsive transcription (estrogenic activity)", "setting": "estrogen receptor (ER)", "value": "more strongly than any other isoflavones"}
    ]},
    {"smiles": "O=C1c2ccc(O)cc2OCC1c1ccc(O)cc1", "note": "(stereo not shown) [dihydrodaidzein]", "values": [
      {"measurement": "free radical scavenging activities", "setting": "[3]; Jiang 2003", "value": "appears to have free radical scavenging activities"}
    ]},
    {"smiles": "O=c1c(-c2ccc(O)cc2)coc2cc(O)cc(O)c12", "note": "[genistein]", "values": [
      {"measurement": "inhibition of topoisomerase II", "setting": "topoisomerase II", "value": "inhibitor"},
      {"measurement": "inhibition of tyrosine protein kinase", "setting": "tyrosine protein kinase", "value": "inhibits"},
      {"measurement": "inhibition of angiogenesis", "setting": "angiogenesis", "value": "inhibits angiogenesis"},
      {"measurement": "basal and epinephrine-stimulated lipolysis", "setting": "rat adipocytes", "value": "enhanced"},
      {"measurement": "basal and insulin-stimulated lipogenesis", "setting": "rat adipocytes", "value": "inhibited"}
    ]},
    {"smiles": "COc1cc2c(=O)c(-c3ccc(O)cc3)coc2cc1O", "note": "[glycitein]", "values": [
      {"measurement": "body fat accumulation", "setting": "[1]", "value": "suppressing body fat accumulation"}
    ]}
  ]
}
